Data set [1] deals with platelet aggregation induced by collagen. Kind of data set: Inhibition of platelet aggregation induced by collagen (platelet-rich plasma taken from dosed rats). In kind it is in vivo. The method, then:
(§1) […] male SD rats weighted 200-300g are provided by the Experimental Animal Center of Lunan Pharmaceutical Group corporation and are divided randomly into 5 groups with 10 rats in each group. The animals are acclimatized for one week before experiment. The animals in the excipient group (equivalent volume of physiological saline), prasugrel maleate group (10mg/kg), prasugrel bisulfate group (10mg/kg) are administered by gastric gavage once each day for 7 days.
(§2) Two days after administered as above, the animals are starved over night. One hour after administered on the second day, the animals are anaesthetized by intraperitoneal injection of urethane, and then celiotomized to separate the abdominal aorta. A polyethylene cannula is inserted to collect 5 ml of blood into a test tube (in the tube is placed beforehand 0.5 ml of 3.8% sodium citrate solution, i.e. the ratio of the anticoagulant solution and blood is 1:9). The whole blood is centrifuged at 1000 rpm for 4 min. 1 ml of platelet-rich plasma (PRP) is taken. The remaining liquid is centrifuged at 3000 rpm for further 8 min. 1 ml of platelet-poor plasma (PPP) is taken. The two samples are placed separately in two plastic test tubes under a constant temperature of (37±0.1)°C. Using ADP (30 ul/tube) and collagen (30 ul/tube) as aggregation inducers, the maximum aggregation intensity is determined and the inhibition rate is calculated. Rate of inhibiting aggregation = (aggregation intensity for excipient group-aggregation intensity for experimental group)/aggregation intensity for excipient group × 100% [formula]

In another data set the test system is rats. Kind of data set: Determination of the rate of hemorrhage (hyperemia, oedema, hemorrhage in the gastric mucosa). In kind it is in vivo. The method, then: as §1
After the rate of inhibiting aggregation is determined, the rats are sacrificed and dissected. The appearances of hyperemiam, oedema, hemorrhage in the gastric mucosa are examined with the aid of a magnifier, and the rats developed with hyperemiam, oedema, hemorrhage in the gastric mucosa are recorded into corresponding test groups as cases of hemorrhage.

For data set [2] the following is noted: dog, in vivo, 10 mg/kg. The text has this:
Six healthy male beagle dogs of around 7-month-old, without statistical difference in their weights, are used in the experiments and fed normally for 2 weeks without receiving any drug. Six beagle dogs are divided randomly into prasugrel bisulfate group and prasugrel hydrochloride group, with 3 dogs in each group. Following the process disclosed in Experimental Example 1 of Chinese Patent Publication No. CN1214031A, the pharmacokinetic parameters of S-methylate in the plasma of the dogs in each group after administration are determined (the administration dosage for both groups is 10mg/kg).

Data set [3] deals with platelet aggregation induced by ADP. Kind of data set: Inhibition of platelet aggregation induced by ADP (platelet-rich plasma taken from dosed rats). The class given is in vivo. Here is the method:
as §1, §2

Setting [4] is: rats, 10mg/kg by gastric gavage, n=10 per group, gastric mucosa.

The term inhibition denotes how much of the control response was suppressed. In general, AUC refers to the area under the concentration-time curve, a measure of exposure. Usually Cmax stands for the maximum level reached in the sampled fluid or tissue. As to `CC(=O)Oc1cc2c(s1)CCN(C(C(=O)C1CC1)c1ccccc1F)C2` (stereo not drawn) [Prasugrel Bisulfate, 2-acetyloxy-5-(α-cycloproylcarbonyl-2-fluorobenzyl)-4,5,6,7-tetrahydrothieno[3,2-C]pyridine bisulfate], the “Collagen Aggregation Intensity (%)” value in data set [1] (10mg/kg by gastric gavage once each day, inducer collagen 30 ul/tube, maximum aggregation intensity) turned out to be 0.346±0.083 %. Moreover, the “inhibition to platelet aggregation induced by collagen” value in data set [1] (10mg/kg, result in words) is on record as “very significant inhibition”. The inhibition at 10 mg/kg in data set [1] (Rattus norvegicus, Platelet, po, 10mg/kg by gastric gavage once each day, inducer collagen 30 ul/tube, relative to excipient group, read-out: Collagen Inhibition Rate (%)) came to 54.3 ± 13.5%. In addition, in the data set on rats (rat, in vivo), the rate of hemorrhage entry is “significantly lower than that in the prasugrel maleate group”. In the data set with rats (setting [4]), the “Cases of Hemorrhage” value is on record as 1 and the “Rate of Hemorrhage (%)” value amounted to 10%. In data set [2], the AUC amounted to 82.3 ± 7.6 µg·min/mL, the highest concentration (Cmax) is 1.21 ± 0.13 µg/mL and the bioavailability result was “better bioavailability than prasugrel hydrochloride”. In data set [3] (10mg/kg by gastric gavage once each day, inducer ADP 30 ul/tube, maximum aggregation intensity), the “ADP Aggregation Intensity (%)” value was 0.336±0.075 %. Further, the “inhibition to platelet aggregation induced by ADP” value in data set [3] (10mg/kg, result in words) is recorded as “very significant inhibition”. Also, the inhibition at 10 mg/kg in data set [3] (Rattus norvegicus, Platelet, po, 10mg/kg by gastric gavage once each day, inducer ADP 30 ul/tube, relative to excipient group, read-out: ADP Inhibition Rate (%)) came out at 48.5 ± 10.6%.

For the origin of these results see patent EP2325187A1, “THE HYDROSULFATE OF PRASUGREL, ITS PHARMACEUTICAL COMBINATION AND USES THEREOF” (priority 2008, dated 2010).
